Results taken from ChEMBL document CHEMBL3885861, “Open TG-GATES”.

Species: Rattus norvegicus
Test: Open TG-GATES - Regimen: Single
Format: toxicity, organism-based, Sprague-Dawley
Design: regimen Single, gender Male, age 6 weeks
Conditions: in vivo, po, route gavage; for TG / TP / gamma-GTP / ALP / AST / BUN / CRE / Ca / Cl / DBIL / GLC / IP / LDH / Na / PL / RALB / TBIL / TC / ALT: tissue Plasma; for APTT / Bas / Eos / Fbg / Hb / Ht / Lym / MCH / MCHC / MCV / Mono / PT / Plat / RBC / Ret / WBC / Neu: tissue Blood; for KIDNEY_L / KIDNEY_R / KIDNEY_TOTAL: tissue Kidney; for LIVER: tissue Liver
[1] = 30 mg/kg, 3 h, dose level Middle
[2] = 30 mg/kg, 6 h, dose level Middle
[3] = 30 mg/kg, 9 h, dose level Middle
[4] = 30 mg/kg, 24 h, dose level Middle
[5] = 100 mg/kg, 3 h, dose level High
[6] = 100 mg/kg, 6 h, dose level High
[7] = 100 mg/kg, 9 h, dose level High
[8] = 100 mg/kg, 24 h, dose level High

CC(=O)N1CCN(c2ccc(OCC3COC(Cn4ccnc4)(c4ccc(Cl)cc4Cl)O3)cc2)CC1 (stereo unspecified) [KETOCONAZOLE]
TG (10 mg/kg, 24 h, dose level Low): 94.4 mg/dL
TP (10 mg/kg, 24 h, dose level Low): 5.5 g/dL
gamma-GTP (10 mg/kg, 24 h, dose level Low): 1.2 IU/L
TERMINAL_BW [1]: 196.9 g
APTT [1]: 21.2 s
Bas [1]: 0%
Eos [1]: 0.4%
Fbg [1]: 275.6 mg/dL
Hb [1]: 12.7 g/dL
Ht [1]: 38.1%
Lym [1]: 77.2%
MCH [1]: 21.5 pg
MCHC [1]: 33.2%
MCV [1]: 64.6 fL
Mono [1]: 1.6%
PT [1]: 17.1 s
Plat [1]: 121.6 x10_4/uL
RBC [1]: 590.6 x10_4/ul
Ret [1]: 8.6%
WBC [1]: 75.8 x10_2/uL
KIDNEY_L [1]: 0.9 g
KIDNEY_R [1]: 0.9 g
KIDNEY_TOTAL [1]: 1.8 g
LIVER [1]: 9 g
ALP [1]: 1671.8 IU/L
AST [1]: 77 IU/L
BUN [1]: 11.6 mg/dL
CRE [1]: 0.2 mg/dL
Ca [1]: 10.8 mg/dL
Cl [1]: 105.2 meq/L
DBIL [1]: 0 mg/dL
GLC [1]: 188.2 mg/dL
IP [1]: 8.6 mg/dL
LDH [1]: 205.8 IU/L
Na [1]: 141.2 meq/L
PL [1]: 140.2 mg/dL
RALB [1]: 2.9 g/dL
TBIL [1]: 0.016 mg/dL
TC [1]: 75.8 mg/dL
TG [1]: 54 mg/dL
TP [1]: 5.4 g/dL
gamma-GTP [1]: 1.2 IU/L
TERMINAL_BW [2]: 199.3 g
APTT [2]: 21.8 s
Bas [2]: 0%
Eos [2]: 1%
Fbg [2]: 304.4 mg/dL
Hb [2]: 13.2 g/dL
Ht [2]: 39.5%
Lym [2]: 79.8%
MCH [2]: 21.1 pg
MCHC [2]: 33.5%
MCV [2]: 63.1 fL
Mono [2]: 2.2%
Neu [2]: 15.8%
PT [2]: 16.7 s
Plat [2]: 126 x10_4/uL
RBC [2]: 626.6 x10_4/ul
Ret [2]: 7.8%
WBC [2]: 67.8 x10_2/uL
KIDNEY_L [2]: 0.9 g
KIDNEY_R [2]: 0.9 g
KIDNEY_TOTAL [2]: 1.9 g
LIVER [2]: 8.4 g
ALP [2]: 1604 IU/L
AST [2]: 72.6 IU/L
BUN [2]: 10.2 mg/dL
CRE [2]: 0.2 mg/dL
Ca [2]: 10.9 mg/dL
Cl [2]: 105.6 meq/L
DBIL [2]: 0 mg/dL
GLC [2]: 179.4 mg/dL
IP [2]: 9.4 mg/dL
LDH [2]: 237.8 IU/L
Na [2]: 142 meq/L
PL [2]: 135 mg/dL
RALB [2]: 3.1 g/dL
TBIL [2]: 0.034 mg/dL
TC [2]: 75 mg/dL
TG [2]: 54.6 mg/dL
TP [2]: 5.5 g/dL
gamma-GTP [2]: 1.2 IU/L
TERMINAL_BW [3]: 200.7 g
APTT [3]: 21.4 s
Bas [3]: 0%
Eos [3]: 1%
Fbg [3]: 287 mg/dL
Hb [3]: 13.3 g/dL
Ht [3]: 39.8%
Lym [3]: 77.4%
MCH [3]: 21.4 pg
MCHC [3]: 33.4%
MCV [3]: 63.9 fL
Mono [3]: 1.4%
Neu [3]: 19.8%
PT [3]: 16.8 s
Plat [3]: 127.9 x10_4/uL
RBC [3]: 622.8 x10_4/ul
Ret [3]: 8.5%
WBC [3]: 52.8 x10_2/uL
KIDNEY_L [3]: 1 g
KIDNEY_R [3]: 1 g
KIDNEY_TOTAL [3]: 1.9 g
LIVER [3]: 8.3 g
ALP [3]: 1563 IU/L
AST [3]: 70.6 IU/L
BUN [3]: 10.6 mg/dL
CRE [3]: 0.2 mg/dL
Ca [3]: 10.6 mg/dL
Cl [3]: 105 meq/L
DBIL [3]: 0.002 mg/dL
GLC [3]: 176.2 mg/dL
IP [3]: 10 mg/dL
LDH [3]: 200.6 IU/L
Na [3]: 141.2 meq/L
PL [3]: 123.8 mg/dL
RALB [3]: 3.1 g/dL
TBIL [3]: 0.02 mg/dL
TC [3]: 65.6 mg/dL
TG [3]: 47 mg/dL
TP [3]: 5.4 g/dL
gamma-GTP [3]: 1.2 IU/L
TERMINAL_BW [4]: 217.1 g
APTT [4]: 20.6 s
Bas [4]: 0%
Eos [4]: 1%
Fbg [4]: 320.8 mg/dL
Hb [4]: 12.7 g/dL
Ht [4]: 38.5%
Lym [4]: 75.2%
MCH [4]: 21.1 pg
MCHC [4]: 33.1%
MCV [4]: 64 fL
Mono [4]: 1.6%
Neu [4]: 20.6%
PT [4]: 16.3 s
Plat [4]: 121.7 x10_4/uL
RBC [4]: 602 x10_4/ul
Ret [4]: 7.3%
WBC [4]: 66 x10_2/uL
KIDNEY_L [4]: 1 g
KIDNEY_R [4]: 1 g
KIDNEY_TOTAL [4]: 2 g
LIVER [4]: 10.7 g
ALP [4]: 1798.8 IU/L
ALT [4]: 49.4 IU/L
AST [4]: 75 IU/L
BUN [4]: 15.4 mg/dL
CRE [4]: 0.2 mg/dL
Ca [4]: 10.8 mg/dL
Cl [4]: 106.2 meq/L
DBIL [4]: 0 mg/dL
GLC [4]: 179 mg/dL
IP [4]: 7.5 mg/dL
LDH [4]: 220 IU/L
Na [4]: 142.4 meq/L
PL [4]: 148.8 mg/dL
RALB [4]: 3 g/dL
TBIL [4]: 0.004 mg/dL
TC [4]: 77.2 mg/dL
TG [4]: 102.2 mg/dL
TP [4]: 5.5 g/dL
gamma-GTP [4]: 1.4 IU/L
TERMINAL_BW [5]: 205.8 g
APTT [5]: 21.1 s
Bas [5]: 0%
Eos [5]: 0.8%
Fbg [5]: 280.8 mg/dL
Hb [5]: 13 g/dL
Ht [5]: 38.6%
Lym [5]: 81.4%
MCH [5]: 21.1 pg
MCHC [5]: 33.5%
MCV [5]: 62.9 fL
Mono [5]: 1.8%
Neu [5]: 15.2%
PT [5]: 16.9 s
Plat [5]: 125.7 x10_4/uL
RBC [5]: 615.2 x10_4/ul
Ret [5]: 8.6%
WBC [5]: 103.8 x10_2/uL
KIDNEY_L [5]: 1 g
KIDNEY_R [5]: 1 g
KIDNEY_TOTAL [5]: 1.9 g
LIVER [5]: 9.5 g
ALP [5]: 1893.6 IU/L
AST [5]: 73.6 IU/L
BUN [5]: 11.6 mg/dL
CRE [5]: 0.1 mg/dL
Ca [5]: 10.8 mg/dL
Cl [5]: 104.6 meq/L
DBIL [5]: 0 mg/dL
GLC [5]: 190.8 mg/dL
IP [5]: 9.2 mg/dL
LDH [5]: 182.4 IU/L
Na [5]: 140.4 meq/L
PL [5]: 151.8 mg/dL
RALB [5]: 2.9 g/dL
TBIL [5]: 0.016 mg/dL
TC [5]: 85 mg/dL
TG [5]: 59.4 mg/dL
TP [5]: 5.3 g/dL
gamma-GTP [5]: 1 IU/L
TERMINAL_BW [6]: 197.9 g
APTT [6]: 21.5 s
Bas [6]: 0%
Eos [6]: 0.6%
Fbg [6]: 290.8 mg/dL
Hb [6]: 13.4 g/dL
Ht [6]: 39.8%
Lym [6]: 80.4%
MCH [6]: 21.4 pg
MCV [6]: 63.6 fL
Mono [6]: 2%
Neu [6]: 15%
PT [6]: 16.6 s
Plat [6]: 127.9 x10_4/uL
RBC [6]: 625.8 x10_4/ul
Ret [6]: 7.5%
WBC [6]: 69 x10_2/uL
KIDNEY_L [6]: 0.9 g
KIDNEY_R [6]: 0.9 g
KIDNEY_TOTAL [6]: 1.8 g
LIVER [6]: 8.7 g
ALP [6]: 1551.6 IU/L
AST [6]: 68.8 IU/L
BUN [6]: 8.8 mg/dL
CRE [6]: 0.2 mg/dL
Ca [6]: 10.9 mg/dL
Cl [6]: 105.2 meq/L
DBIL [6]: 0 mg/dL
GLC [6]: 191.2 mg/dL
IP [6]: 9.9 mg/dL
LDH [6]: 257.2 IU/L
Na [6]: 141.4 meq/L
PL [6]: 142.8 mg/dL
RALB [6]: 3 g/dL
TBIL [6]: 0.02 mg/dL
TC [6]: 74.2 mg/dL
TG [6]: 94.2 mg/dL
TP [6]: 5.4 g/dL
gamma-GTP [6]: 1 IU/L
TERMINAL_BW [7]: 199.2 g
APTT [7]: 20.8 s
Bas [7]: 0%
Eos [7]: 1%
Fbg [7]: 298 mg/dL
Ht [7]: 38.7%
Lym [7]: 80.6%
MCH [7]: 21.2 pg
MCV [7]: 62.9 fL
Mono [7]: 1.6%
Neu [7]: 15.8%
PT [7]: 16.9 s
Plat [7]: 124.7 x10_4/uL
RBC [7]: 615.4 x10_4/ul
Ret [7]: 8.1%
WBC [7]: 80.7 x10_2/uL
KIDNEY_L [7]: 0.9 g
KIDNEY_R [7]: 0.9 g
KIDNEY_TOTAL [7]: 1.8 g
LIVER [7]: 8.1 g
ALP [7]: 1393.4 IU/L
AST [7]: 63.2 IU/L
BUN [7]: 7.4 mg/dL
CRE [7]: 0.2 mg/dL
Ca [7]: 10.7 mg/dL
Cl [7]: 106 meq/L
DBIL [7]: 0 mg/dL
GLC [7]: 198 mg/dL
IP [7]: 9.3 mg/dL
LDH [7]: 179 IU/L
Na [7]: 142.2 meq/L
PL [7]: 137.4 mg/dL
RALB [7]: 2.9 g/dL
TBIL [7]: 0.02 mg/dL
TC [7]: 73.4 mg/dL
TG [7]: 55.2 mg/dL
TP [7]: 5.3 g/dL
gamma-GTP [7]: 1.2 IU/L
TERMINAL_BW [8]: 216.3 g
APTT [8]: 21.5 s
Bas [8]: 0%
Eos [8]: 0.4%
Fbg [8]: 304.2 mg/dL
Hb [8]: 13.3 g/dL
Ht [8]: 39.9%
Lym [8]: 74.8%
MCH [8]: 21.4 pg
MCHC [8]: 33.2%
MCV [8]: 64.4 fL
Mono [8]: 2%
Neu [8]: 21.4%
PT [8]: 16.4 s
Plat [8]: 127 x10_4/uL
RBC [8]: 621 x10_4/ul
Ret [8]: 8%
WBC [8]: 71.7 x10_2/uL
KIDNEY_L [8]: 1 g
KIDNEY_R [8]: 1 g
KIDNEY_TOTAL [8]: 2 g
LIVER [8]: 11 g
ALP [8]: 1882.6 IU/L
ALT [8]: 55.8 IU/L
AST [8]: 89.8 IU/L
BUN [8]: 15.8 mg/dL
CRE [8]: 0.2 mg/dL
Ca [8]: 10.7 mg/dL
Cl [8]: 105.4 meq/L
DBIL [8]: 0 mg/dL
GLC [8]: 180.4 mg/dL
IP [8]: 8.4 mg/dL
LDH [8]: 226.4 IU/L
Na [8]: 142.2 meq/L
PL [8]: 147 mg/dL
RALB [8]: 2.9 g/dL
TBIL [8]: 0.004 mg/dL
TC [8]: 79.4 mg/dL
TG [8]: 88.6 mg/dL
TP [8]: 5.4 g/dL
gamma-GTP [8]: 1 IU/L
